Earlier results in patent US9938200B2, “Methods for improving bud break” (priority 2010, dated 2018).

Tested on: vines
Details: use over time

N#CN [hydrogen cyanamide]
lowering of the fruitability of vines: 20-30 % per year
